# In patent US20260258009A1, “3-[(BENZO[D][1,3]DIOXOLANE-4-YL)OXY]PROPYLAMINE HYDROCHLORIDE, OPTICAL ISOMER AND CRYSTAL THEREOF, AND PREPARATION METHOD THEREFOR” (priority 2022, published 2026):
# Where a name gives a salt, the structure may show the parent alone. Read-outs that look alike come from different tables or passages of the source.
# Experiments:
# [1] = Solubility experiment (HPLC, external standard method); assay type: physicochemical
# Description: The concentrated solution was placed in a 20° C. water bath thermostatic oscillator for overnight oscillation (supersaturation) and filtered. The filtrate was taken, 1 mL of which was precisely measured and placed in a 100 mL volumetric flask. A diluent (water) was added, the mixture was diluted to volume and mixed well, 1 mL of which was precisely measured and placed in a 10 mL volumetric flask. A diluent was added, the mixture was diluted to volume and mixed well as a test sample solution.
# Control substance solution: A proper amount of 5 samples were respectively taken, precisely measured, dissolved in a proper amount of a diluent by ultrasonication, and diluted to give a solution containing about 0.1 mg of the sample per 1 mL. Two duplicate samples were prepared for each batch.
# • (1) Preparation of buffer: About 2.6428 g ammonium sulfate was weighed and dissolved in 1000 mL of water. 2 mL of triethylamine was added, and the pH value was adjusted to 4.0 with dilute sulfuric acid. • (2) Preparation of mobile phase: Methanol-0.02 mol/L ammonium sulfate solution (2 mL triethylamine was added per 1000 mL, and the pH value was adjusted to 4.0 with dilute sulfuric acid) (45:55). 1000 mL was prepared, mixed well, filtered, and used after ultrasonic treatment.
# Detection wavelength: 230 nm; flow rate: 1.0 mL/min; column temperature: 35° C.; sample injection volume: 20 μL; chromatographic column: Agilent Eclipse XDB-C18 chromatographic column (4.6×150 mm, 5 μm); mobile phase: methanol-0.02 mol/L ammonium sulfate solution (2 mL triethylamine was added per 1000 mL, and the pH value was adjusted to 4.0 with dilute sulfuric acid) (45:55).
# 20 μL of each solution was precisely measured, and injected separately into a liquid chromatograph. The chromatograms were recorded, and the solubility of the compounds was determined according to an external standard method.
# [2] = Experiments of influencing factors (crystal form stability, XRPD); assay type: physicochemical; details: hydrochloride; for Crystal form after High temperature of 60° C. / Crystal form after Illumination of 5000 1x / Crystal form after High humidity of 92.5%: XRPD; for Crystal form stability (experimental conclusion): high temperature, high humidity, illumination, condition stated in the value; for Crystal form after Illumination of 5000 1x: photostability tester 5000 lx; for Crystal form after High humidity of 92.5%: relative humidity 92.5%
# Description: High temperature experiment: About 1 g of the A, B, and C crystal forms were respectively weighed, placed in a clean watch glass, and placed at 60° C. for 10 days. The samples were taken on day 0, day 5, day 10, and day 30 for XRPD analysis.
# High humidity experiment: About 1 g of the A, B, and C crystal form samples were respectively weighed, placed in a clean watch glass, and placed at a relative humidity of 92.5% for 10 days. The samples were taken on day 0, day 5, day 10, and day 30 for XRPD analysis.
# Illumination experiment: About 1 g of the A, B, and C crystal form samples were respectively weighed, placed in a clean watch glass, laid flat, and placed in a photostability tester (the illumination was 5000 lx) for 10 days. The samples were taken on day 0, day 5, day 10, and day 30 for XRPD analysis.
# [3] = both, beagle, dog, in vivo
# Description: (§1) Each group had six beagle dogs, half male and half female.
# (§2) Preparation of solutions: • 1) Intravenous injection administration: 0.9% Normal saline was used as a vehicle. • 2) Oral administration: According to the dose of 10 mg/kg (based on base), a corresponding mass of the drug was weighed according to the actual weight of the animal, and then filled into a capsule to be administered to the animal.
# Hygroscopicity test = assay type: physicochemical; details: 25° C.±1° C., relative humidity 80%±2%, 24 h; for Hygroscopicity: hydrochloride
# Description: 17.1. A dried glass weighing bottle with a plug (outer diameter: 50 mm; height: 15 mm) was taken and placed in a suitable thermostatic dryer (with saturated ammonium chloride or ammonium sulfate solution placed in the lower part) at 25° C.±1° C. or an artificial climate box (with a set temperature at 25° C.±1° C. and relative humidity at 80%±2%) on the day before the test, and the weight (m1) was precisely measured. 17.2. An appropriate amount of the A crystal form of the compound of formula (I) was taken and spread in the above weighing bottle, with the thickness of the test sample being about 1 mm in general, and the weight (m2) was precisely measured. […] The weighing bottle was opened and placed in the above conditions at constant temperature and humidity for 24 h together with the cap. 17.4. The weighing bottle was capped, and the weight (m3) was precisely measured. [formula]
# ICR mice = test: Mouse forced swimming test; assay type: in vivo; details: for Immobility time: mice, 1 h after administration, mean±SD, n=12
# Description: SPF grade ICR mice were taken. The animals were grouped by weight, 12 animals per group, and the animals were allowed to acclimate for at least 3 days before behavioural test.
# The behavioural test was started 1 h after intragastric administration. The mice were placed in a transparent glass cylinder with water (water depth: 15 cm, water temperature: 23-25° C.) and video recorded for 6 min (the background was an LED light panel). At the end of the time, the mice were removed from the water and the next batch of mice was subjected to the behavioural test. Water was changed after every 3 batches of tests. After the test, the video of the behavioural test was derived and the cumulative immobility time of the mice 4 min after the 6 min forced swimming period was analyzed using the Forced Swim Scant 2.0 software.
# The test results are expressed as mean±SD. Comparisons between each group and the vehicle group were conducted using the t-test. The differences were considered statistically significant when. P<0.05.
# [4] = Pharmacokinetic assay in beagle dogs; details: both, dog, in vivo, mean; for half-life: t1/2, beagle dogs
# Description: as §1, §2
# [5] = 5 days, listed as A crystal form
# [6] = 10 days, listed as A crystal form
# [7] = 30 days, listed as A crystal form
# [8] = po, 1 mg/kg, beagle dogs, oral (capsule)
smiles,measurement,setting,value
"CNCC[C@@H](Oc1cccc2c1OCO2)c1ccccc1.O=C(O)C(=O)O [(R)—N-methyl-3-phenyl-3-[(benzo[d][1,3]dioxolan-4-yl)oxy]propylamine oxalate, reference compound]",solubility,"[1]; thermodynamic from solid, Water, 20° C., overnight oscillation, read-out: Solubility",5100 µg/mL
"CNCC[C@@H](Oc1cccc2c1OCO2)c1ccccc1.Cl [B crystal form, (R)—N-methyl-3-phenyl-3-[(benzo[d][1,3]dioxolan-4-yl)oxy]propylamine hydrochloride]",Crystal form after High temperature of 60° C.,[2]; 5 days,Crystal form A + B
same,Crystal form after High temperature of 60° C.,[2]; 10 days,Crystal form A + B
same,Crystal form after High temperature of 60° C.,[2]; 30 days,Crystal form A + B
same,Crystal form stability (experimental conclusion),[2],converted into a mixed crystal of the crystal forms A and B under the high temperature and high humidity environment
same,Crystal form after Illumination of 5000 1x,[2]; 5 days,Crystal form B
same,Crystal form after Illumination of 5000 1x,[2]; 10 days,Crystal form B
same,Crystal form after Illumination of 5000 1x,[2]; 30 days,Crystal form B
same,Crystal form after High humidity of 92.5%,[2]; 5 days,Crystal form A + B
same,Crystal form after High humidity of 92.5%,[2]; 10 days,Crystal form A + B
same,Crystal form after High humidity of 92.5%,[2]; 30 days,Crystal form A + B
"CNCC[C@@H](Oc1cccc2c1OCO2)c1ccccc1.Cl [C crystal form, (R)—N-methyl-3-phenyl-3-[(benzo[d][1,3]dioxolan-4-yl)oxy]propylamine hydrochloride]",Crystal form after High temperature of 60° C.,[2]; 5 days,Crystal form C
same,Crystal form after High temperature of 60° C.,[2]; 10 days,Crystal form C
same,Crystal form after High temperature of 60° C.,[2]; 30 days,Crystal form C
same,Crystal form stability (experimental conclusion),[2],converted into the A crystal form under the high humidity environment
same,Crystal form after Illumination of 5000 1x,[2]; 5 days,Crystal form C
same,Crystal form after Illumination of 5000 1x,[2]; 10 days,Crystal form C
same,Crystal form after Illumination of 5000 1x,[2]; 30 days,Crystal form C
same,Crystal form after High humidity of 92.5%,[2]; 5 days,Crystal form A
same,Crystal form after High humidity of 92.5%,[2]; 10 days,Crystal form A
same,Crystal form after High humidity of 92.5%,[2]; 30 days,Crystal form A
"CNCC[C@@H](Oc1cccc2c1OCO2)c1ccccc1.Cl [Crystal form A of compound of formula (I)] [(R)—N-methyl-3-phenyl-3-[(benzo[d][1,3]dioxolan-4-yl)oxy]propylamine hydrochloride]",Crystal form after High temperature of 60° C.,[2]; [5],Crystal form A
same,Crystal form after High temperature of 60° C.,[2]; [6],Crystal form A
same,Crystal form after High temperature of 60° C.,[2]; [7],Crystal form A
same,Crystal form stability (experimental conclusion),[2]; listed as A crystal form,"can keep stable under high temperature, high humidity, and illumination"
same,Crystal form after Illumination of 5000 1x,[2]; [5],Crystal form A
same,Crystal form after Illumination of 5000 1x,[2]; [6],Crystal form A
same,Crystal form after Illumination of 5000 1x,[2]; [7],Crystal form A
same,Crystal form after High humidity of 92.5%,[2]; [5],Crystal form A
same,Crystal form after High humidity of 92.5%,[2]; [6],Crystal form A
same,Crystal form after High humidity of 92.5%,[2]; [7],Crystal form A
same,solubility,[1],35550 µg/mL
same,AUC(0-t),"[3]; iv, 0.3 mg/kg",123.7 ng·h/mL
same,AUC(0-∞),"[3]; iv, 0.3 mg/kg",124.5 ng·h/mL
same,Cmax,"[3]; iv, 0.3 mg/kg",83.6 ng/mL
same,Tmax,"[3]; iv, 0.3 mg/kg",0.08 h
same,t1/2,"[3]; iv, 0.3 mg/kg",2.08 h
same,bioavailability,[3]; po,28.2%
same,AUC(0-t),"[3]; po, 1 mg/kg",116.3 ng·h/mL
same,AUC(0-∞),"[3]; po, 1 mg/kg",117.1 ng·h/mL
same,Cmax,"[3]; po, 1 mg/kg",35.3 ng/mL
same,Tmax,"[3]; po, 1 mg/kg",0.92 h
same,t1/2,"[3]; po, 1 mg/kg",2.48 h
same,Weight gain,Hygroscopicity test,0.01%
same,Hygroscopicity,Hygroscopicity test; listed as A crystal form of the compound of formula (I),no or almost no hygroscopicity
same,Hygroscopicity,Hygroscopicity test; listed as A crystal form,no or almost no hygroscopicity
"CNCC[C@H](Oc1cccc2ccccc12)c1cccs1 [Duloxetine hydrochloride, reference compound]",ED50,"ICR mice; Mus musculus, po, read-out: ED50 (median effective dose, FST-ED50)",6.93 mg/kg
same,Immobility time,"ICR mice; intragastric, 1.25 mg/kg",135.1 ± 49.2 s
same,Immobility time,"ICR mice; intragastric, 2.5 mg/kg",154.9 ± 76.0 s
same,Immobility time,"ICR mice; intragastric, 5 mg/kg",104.9 ± 51.5 s
same,Immobility time,"ICR mice; intragastric, 20 mg/kg",29.9 ± 45.4 s
same,Immobility time,"ICR mice; intragastric, 40 mg/kg",10.6 ± 17.3 s
same,minimum effective dose (MED),"ICR mice; mouse forced swimming, intragastric",5 mg/kg
"CNCCC(Oc1cccc2c1OCO2)c1ccccc1.O=C(O)C(=O)O (centres unmarked) [N-methyl-3-phenyl-3-[(benzo[d][1,3]dioxolan-4-yl)oxy]propylamine oxalate]",solubility,"[1]; water, 20 °C, water, thermodynamic from solid, Water, 20° C., overnight oscillation, read-out: Solubility",6900 µg/mL
same,AUC(0-t),"[4]; iv, 0.3 mg/kg, beagle dogs",109 ng·h/mL
same,AUC(0-inf),"[4]; iv, 0.3 mg/kg, beagle dogs",110 ng·h/mL
same,Cmax,"[4]; iv, 0.3 mg/kg, beagle dogs",71.6 ng/mL
same,Tmax,"[4]; iv, 0.3 mg/kg, beagle dogs",0.08 h
same,half-life,"[4]; iv, 0.3 mg/kg",1.93 h
same,AUC(0-t),[4]; [8],78.7 ng·h/mL
same,AUC(0-inf),[4]; [8],79.9 ng·h/mL
same,bioavailability,"[4]; po, 1 mg/kg, Bioavailability, beagle dogs, oral 1 mg/kg vs intravenous 0.3 mg/kg",21.8%
same,Cmax,[4]; [8],23.7 ng/mL
same,Tmax,[4]; [8],1.43 h
same,half-life,"[4]; po, 1 mg/kg, oral (capsule)",1.98 h
